# Laboratory results: ChEMBL document CHEMBL1132978, “Artificial neural network applied to prediction of fluorquinolone antibacterial activity by topological methods” (2000)
# Test system: Escherichia coli
# Experiment: Minimum inhibitory concentration against Escherichia coli
# Type: functional
row,Compound,MIC
1,CCN1CCN(c2cc3c(cc2F)c(=O)c(C(=O)O)cn3C(C)(C)C)CC1,0.2 µg/mL
2,CCN1CCN(c2cc3c(cc2F)c(=O)c(C(=O)O)cn3C2CCC2)CC1,0.8 µg/mL
3,CC1CN(c2cc3c(cc2F)c(=O)c(C(=O)O)cn3C(C)C)CC(C)N1 (stereo unspecified),1.6 µg/mL
4,CCC1CN(c2cc3c(cc2F)c(=O)c(C(=O)O)cn3C2CC2)CCN1 (stereo unspecified),0.1 µg/mL
5,CC1CN(c2cc3c(cc2F)c(=O)c(C(=O)O)cn3-c2ccc(F)cc2F)CCN1 (stereo unspecified) [TEMAFLOXACIN],0.1 µg/mL
6,COc1c(N2CCC(C)(CN)C2)c(F)cc2c(=O)c(C(=O)O)cn(C3CC3)c12 (stereo unspecified),0.1 µg/mL
7,CC1(CN)CCN(c2cc3c(cc2F)c(=O)c(C(=O)O)cn3C2CC2)C1 (stereo unspecified),0.1 µg/mL
8,CC(C)CN1CCN(c2cc3c(cc2F)c(=O)c(C(=O)O)cn3C2CC2)CC1,0.2 µg/mL
9,NCC1CCN(c2cc3c(cc2F)c(=O)c(C(=O)O)cn3C2CC2)C1 (stereo unspecified),0.05 µg/mL
10,CC(C)n1cc(C(=O)O)c(=O)c2cc(F)c(N3CCNCC3)cc21,0.8 µg/mL
11,CC(C)N1CCN(c2cc3c(cc2F)c(=O)c(C(=O)O)cn3-c2ccc(F)cc2F)CC1,0.8 µg/mL
12,CCNCC1CCN(c2c(F)c(N)c3c(=O)c(C(=O)O)cn(C4CC4)c3c2F)C1 (stereo unspecified),0.05 µg/mL
13,CCN1CCN(c2cc3c(cc2F)c(=O)c(C(=O)O)cn3C2CC2)CC1 [ENROFLOXACIN],0.05 µg/mL
14,COc1c(N2CCC(C)(CN)C2)c(F)c(N)c2c(=O)c(C(=O)O)cn(C3CC3)c12 (stereo unspecified),0.1 µg/mL
15,NCC1CCCN(c2c(F)cc3c(=O)c(C(=O)O)cn(C4CC4)c3c2Cl)C1 (stereo unspecified),0.1 µg/mL
16,CC1CN(c2cc3c(cc2F)c(=O)c(C(=O)O)cn3-c2ccc(F)cc2F)CC(C)N1 (stereo unspecified),0.4 µg/mL
17,NC1CCN(c2c(F)cc3c(=O)c(C(=O)O)cn(C4CC4)c3c2F)C1 (stereo unspecified),0.013 µg/mL
18,NC1CCN(c2c(F)cc3c(=O)c(C(=O)O)cn(C4CC4)c3c2Cl)C1 (stereo unspecified) [CLINAFLOXACIN],0.013 µg/mL
19,CCOc1c(N2CCCC(CN)C2)c(F)cc2c(=O)c(C(=O)O)cn(C3CC3)c12 (stereo unspecified),0.2 µg/mL
20,CNCC1CCN(c2c(F)c(N)c3c(=O)c(C(=O)O)cn(C4CC4)c3c2F)C1 (stereo unspecified),0.025 µg/mL
21,O=C(O)c1cn(C2CCC2)c2cc(N3CCNCC3)c(F)cc2c1=O,0.4 µg/mL
22,CCn1cc(C(=O)O)c(=O)c2cc(F)c(N3CCC(CNC)C3)cc21 (stereo unspecified),3.1 µg/mL
23,CC(C)N1CCN(c2cc3c(cc2F)c(=O)c(C(=O)O)cn3C2CC2)CC1,0.1 µg/mL

row,Compound,MIC
1,NCC1CCCN(c2c(F)cc3c(=O)c(C(=O)O)cn(C4CC4)c3c2F)C1 (stereo unspecified),0.05 µg/mL
2,CN(C)CC1CCN(c2cc3c(cc2F)c(=O)c(C(=O)O)cn3C2CC2)C1 (stereo unspecified),0.2 µg/mL
3,CC(N)C1CCN(c2cc3c(c(N)c2F)c(=O)c(C(=O)O)cn3C2CC2)C1 (stereo unspecified),0.025 µg/mL
4,COc1c(N2CCCC(N)C2)c(F)cc2c(=O)c(C(=O)O)cn(C3CC3)c12 (stereo unspecified),0.1 µg/mL
5,CC(N)C1CCN(c2c(F)cc3c(=O)c(C(=O)O)cn(C4CC4)c3c2F)C1 (stereo unspecified),0.013 µg/mL
6,CNCC1CCN(c2cc3c(cc2F)c(=O)c(C(=O)O)cn3-c2ccc(F)cc2F)C1 (stereo unspecified),0.2 µg/mL
7,NC1CCN(c2nc3c(cc2F)c(=O)c(C(=O)O)cn3C2CC2)C1 (stereo unspecified),0.013 µg/mL
8,COc1c(N2CCC(N)CC2)c(F)c(N)c2c(=O)c(C(=O)O)cn(C3CC3)c12,0.1 µg/mL
9,COc1c(N2CCC(CN)C2)c(F)cc2c(=O)c(C(=O)O)cn(C3CC3)c12 (stereo unspecified),0.05 µg/mL
10,CC1CN(c2cc3c(cc2F)c(=O)c(C(=O)O)cn3C(C)C)CCN1 (stereo unspecified),0.8 µg/mL
11,CC1CN(c2cc3c(cc2F)c(=O)c(C(=O)O)cn3C2CCC2)CC(C)N1 (stereo unspecified),0.4 µg/mL
12,CCNCC1CCN(c2c(F)cc3c(=O)c(C(=O)O)cn(C4CC4)c3c2OC)C1 (stereo unspecified),0.1 µg/mL
13,COc1c(N2CCCC(CN)C2)c(F)c(N)c2c(=O)c(C(=O)O)cn(C3CC3)c12 (stereo unspecified),0.1 µg/mL
14,O=C(O)c1cn(-c2ccc(F)cc2F)c2cc(N3CCNCC3)c(F)cc2c1=O,0.1 µg/mL
15,CCn1cc(C(=O)O)c(=O)c2cc(F)c(N3CCNCC3)cc21 [NORFLOXACIN],0.1 µg/mL
16,CC1CN(c2cc3c(cc2F)c(=O)c(C(=O)O)cn3C(C)(C)C)CC(C)N1 (stereo unspecified),0.2 µg/mL
17,CCNCC1CCN(c2c(F)cc3c(=O)c(C(=O)O)cn(C4CC4)c3c2C(F)(F)F)C1 (stereo unspecified),0.4 µg/mL
18,NCC1CCN(c2nc3c(cc2F)c(=O)c(C(=O)O)cn3-c2ccc(F)cc2F)C1 (stereo unspecified),0.05 µg/mL
19,COc1c(N2CCCC(CN)C2)c(F)cc2c(=O)c(C(=O)O)cn(C3CC3)c12 (stereo unspecified),0.2 µg/mL
20,CCC1CN(c2cc3c(cc2F)c(=O)c(C(=O)O)cn3-c2ccc(F)cc2F)CCN1 (stereo unspecified),0.4 µg/mL
21,CCn1cc(C(=O)O)c(=O)c2cc(F)c(N3CCC(CN)C3)c(F)c21 (stereo unspecified),0.1 µg/mL
22,CCCCN1CCN(c2cc3c(cc2F)c(=O)c(C(=O)O)cn3-c2ccc(F)cc2F)CC1,0.8 µg/mL
23,CC(C)n1cc(C(=O)O)c(=O)c2cc(F)c(N3CCC(N)C3)cc21 (stereo unspecified),0.8 µg/mL

row,Compound,MIC
1,CCn1cc(C(=O)O)c(=O)c2cc(F)c(N3CCC(N)C3)cc21 (stereo unspecified),0.4 µg/mL
2,CCOc1c(N2CCC(C)(CN)C2)c(F)c(N)c2c(=O)c(C(=O)O)cn(C3CC3)c12 (stereo unspecified),0.2 µg/mL
3,NCC1CCCN(c2c(F)c(N)c3c(=O)c(C(=O)O)cn(C4CC4)c3c2F)C1 (stereo unspecified),0.05 µg/mL
4,NCC1CCCN(c2cc3c(cc2F)c(=O)c(C(=O)O)cn3C2CC2)C1 (stereo unspecified),0.4 µg/mL
5,COc1c(N2CC(C)NC(C)C2)c(F)cc2c(=O)c(C(=O)O)cn(C3CC3)c12 (stereo unspecified),0.1 µg/mL
6,CC(C)CN1CCN(c2cc3c(cc2F)c(=O)c(C(=O)O)cn3-c2ccc(F)cc2F)CC1,3.1 µg/mL
7,CCOc1c(N2CCCC(N)C2)c(F)cc2c(=O)c(C(=O)O)cn(C3CC3)c12 (stereo unspecified),0.2 µg/mL
8,CC1CN(c2cc3c(cc2F)c(=O)c(C(=O)O)cn3C(C)(C)C)CCN1 (stereo unspecified),0.1 µg/mL
9,CCN1CCN(c2cc3c(cc2F)c(=O)c(C(=O)O)cn3-c2ccc(F)cc2F)CC1,0.4 µg/mL
10,CC(C)NCC1CCN(c2cc3c(cc2F)c(=O)c(C(=O)O)cn3C2CC2)C1 (stereo unspecified),0.4 µg/mL
11,COc1c(N2CCC(N)C2)c(F)c(N)c2c(=O)c(C(=O)O)cn(C3CC3)c12 (stereo unspecified),0.025 µg/mL
12,CC1CN(c2cc3c(cc2F)c(=O)c(C(=O)O)cn3C2CC2)CCN1 (stereo unspecified),0.05 µg/mL
13,CCNCC1CCN(c2c(F)cc3c(=O)c(C(=O)O)cn(CC)c3c2F)C1 (stereo unspecified) [MERAFLOXACIN],0.1 µg/mL
14,NCC1CCN(c2nc3c(cc2F)c(=O)c(C(=O)O)cn3C2CC2)C1 (stereo unspecified),0.05 µg/mL
15,CCNC(C)C1CCN(c2cc3c(c(N)c2F)c(=O)c(C(=O)O)cn3C2CC2)C1 (stereo unspecified),0.1 µg/mL
16,CCNCC1CCN(c2cc3c(c(N)c2F)c(=O)c(C(=O)O)cn3C2CC2)C1 (stereo unspecified),0.1 µg/mL
17,CCn1cc(C(=O)O)c(=O)c2cc(F)c(N3CCNC(C)C3)cc21 (stereo unspecified),0.2 µg/mL
18,NCC1CCN(c2c(F)c(N)c3c(=O)c(C(=O)O)cn(C4CC4)c3c2F)C1 (stereo unspecified),0.013 µg/mL
19,CNCC1CCN(c2cc3c(cc2F)c(=O)c(C(=O)O)cn3C2CCC2)C1 (stereo unspecified),0.8 µg/mL
20,NC1CCN(c2cc3c(cc2F)c(=O)c(C(=O)O)cn3C2CCC2)C1 (stereo unspecified),0.4 µg/mL
21,CNCC1CCN(c2cc3c(cc2F)c(=O)c(C(=O)O)cn3C2CC2)C1 (stereo unspecified),0.2 µg/mL
22,CN1CCN(c2cc3c(cc2F)c(=O)c(C(=O)O)cn3-c2ccc(F)cc2F)CC1,0.2 µg/mL
23,CCNCC1CCN(c2cc3c(cc2F)c(=O)c(C(=O)O)cn3C2CC2)C1 (stereo unspecified),0.1 µg/mL

row,Compound,MIC
1,CNCC1CCN(c2nc3c(cc2F)c(=O)c(C(=O)O)cn3C2CC2)C1 (stereo unspecified),0.1 µg/mL
2,CC(C)(C)n1cc(C(=O)O)c(=O)c2cc(F)c(N3CCC(N)C3)cc21 (stereo unspecified),0.2 µg/mL
3,CCn1cc(C(=O)O)c(=O)c2cc(F)c(N3CCC(N)C3)c(OC)c21 (stereo unspecified),0.2 µg/mL
4,CN1CCN(c2cc3c(cc2F)c(=O)c(C(=O)O)cn3C2CC2)CC1,0.05 µg/mL
5,CCn1cc(C(=O)O)c(=O)c2cc(F)c(N3CC(C)NC(C)C3)cc21 (stereo unspecified),0.4 µg/mL
6,CCN1CCN(c2cc3c(cc2F)c(=O)c(C(=O)O)cn3C(C)C)CC1,1.6 µg/mL
7,CCNCC1CCN(c2c(F)cc3c(=O)c(C(=O)O)cn(C4CC4)c3c2F)C1 (stereo unspecified) [PD-117558],0.05 µg/mL
8,CCOc1c(N2CCC(C)(CN)C2)c(F)cc2c(=O)c(C(=O)O)cn(C3CC3)c12 (stereo unspecified),0.2 µg/mL
9,COc1c(N2CCNC(C)C2)c(F)cc2c(=O)c(C(=O)O)cn(C3CC3)c12 (stereo unspecified) [GATIFLOXACIN],0.05 µg/mL
10,CCNCC1CCN(c2cc3c(cc2F)c(=O)c(C(=O)O)cn3-c2ccc(F)cc2F)C1 (stereo unspecified),0.4 µg/mL
11,CCN1CCN(c2cc3c(cc2F)c(=O)c(C(=O)O)cn3CC)CC1,0.1 µg/mL
12,COc1c(N2CCN(C)CC2)c(F)cc2c(=O)c(C(=O)O)cn(C3CC3)c12,0.1 µg/mL
13,CC(C)(C)n1cc(C(=O)O)c(=O)c2cc(F)c(N3CCNCC3)cc21,0.2 µg/mL
14,CNCC1CCN(c2cc3c(cc2F)c(=O)c(C(=O)O)cn3C(C)C)C1 (stereo unspecified),3.1 µg/mL
15,Nc1c(F)c(N2CCC(N)C2)cc2c1c(=O)c(C(=O)O)cn2C1CC1 (stereo unspecified),0.013 µg/mL
16,NC1CCN(c2c(F)cc3c(=O)c(C(=O)O)cn(C4CC4)c3c2C(F)(F)F)C1 (stereo unspecified),0.1 µg/mL
17,CCOc1c(N2CCCC(N)C2)c(F)c(N)c2c(=O)c(C(=O)O)cn(C3CC3)c12 (stereo unspecified),0.2 µg/mL
18,CCOc1c(N2CCNC(C)C2)c(F)cc2c(=O)c(C(=O)O)cn(C3CC3)c12 (stereo unspecified),0.1 µg/mL
19,COc1c(N2CCC(N)C2)c(F)cc2c(=O)c(C(=O)O)cn(C3CC3)c12 (stereo unspecified),0.025 µg/mL
20,CCn1cc(C(=O)O)c(=O)c2cc(F)c(N3CCC(N)C3)c(F)c21 (stereo unspecified),0.05 µg/mL
21,COc1c(N2CC(C)NC(C)C2)c(F)c(N)c2c(=O)c(C(=O)O)cn(C3CC3)c12 (stereo unspecified),0.2 µg/mL
22,CC1CN(c2cc3c(cc2F)c(=O)c(C(=O)O)cn3C2CC2)CC(C)N1 (stereo unspecified),0.05 µg/mL
